Test results published in paper PMC8474119, “Discovery and SAR Evolution of Pyrazole Azabicyclo[3.2.1]octane Sulfonamides as a Novel Class of Non-Covalent N-Acylethanolamine-Hydrolyzing Acid Amidase (NAAA) Inhibitors for Oral Administration” (Journal of Medicinal Chemistry, 2021).

What was measured:
[1] = biological target: T1, h-NAAA (Homo sapiens, UniProt Q02083); experiment: Fluorogenic human-NAAA assay (h-NAAA, fluo.); format: biochemical; details: for LipE: LipE = pIC50 – c Log P (h-NAAA); for pIC50: Table S1; for pIC50 / IC50: h-NAAA (fluo.); for IC50: mean ± SD (n ≥ 3), n.a.: not active @50 μM (<10% inhibition)
T1 construct: made in house; host or cells: HEK-293 cells stably overexpressing human NAAA; enzyme-enriched (lysosomal) lysate
T1 sequence (Q02083 29-125 limits assumed): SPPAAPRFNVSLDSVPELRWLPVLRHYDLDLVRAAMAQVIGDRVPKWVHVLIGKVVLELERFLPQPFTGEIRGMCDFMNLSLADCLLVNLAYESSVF
T1 sequence (Q02083 126-359 limits assumed): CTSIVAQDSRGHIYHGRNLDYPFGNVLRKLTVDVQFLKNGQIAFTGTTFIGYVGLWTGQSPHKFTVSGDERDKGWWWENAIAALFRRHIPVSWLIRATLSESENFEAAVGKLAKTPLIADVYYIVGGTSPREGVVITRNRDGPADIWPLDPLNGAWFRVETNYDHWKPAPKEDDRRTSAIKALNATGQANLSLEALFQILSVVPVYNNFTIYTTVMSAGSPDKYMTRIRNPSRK
Experimental: Human recombinant proteins were obtained from HEK-293 stable overexpressing human NAAA, AC, and FAAH-1 cell lines, respectively. Cells were grown in Dulbecco’s modified Eagle medium (DMEM) containing 10% FBS, 1% glutamine, 1 mM sodium pyruvate, and 500 μg/mL geneticin (G418). To obtain a high-density cell proliferation, h-NAAA-HEK-293 cells were grown in BelloCell-500 bottle, a compact bioreactor. On the contrary, h-AC and h-FAAH-1-HEK-293 cells were grown in 150 mm dishes and scraped off with cold PBS 1× pH 7.4 at 80% confluence. Cell pellets were collected and stored at −80 °C until protein preparation.
HEK-293 cells stably transfected with the human NAAA or human AC coding sequences were used as the enzyme source. Cells were suspended in 20 mM Tris-HCl (pH 7.4) with 0.32 M sucrose, sonicated, and centrifuged at 800g for 30 min at 4 °C. Supernatants were then centrifuged at 12,000g for 30 min at 4 °C. Pellets were resuspended in PBS buffer (pH 7.4) and subjected to three freeze-thaw cycles at −80 °C. The suspension was finally centrifuged at 105,000g for 1 h at 4 °C, supernatants were collected, protein concentration was measured, and samples were aliquoted and stored at −80 °C until use.
The assay was run in 96-well microplates (Black OptiPlate-96 F; PerkinElmer, Massachusetts, USA), in a total reaction volume of 200 μL. h-NAAA protein preparation (4 μg) was preincubated for 30 min with various concentrations of test compounds or vehicle control (DMSO 5%) in 100 mM citrate/phosphate buffer (pH 4.5) containing 3.0 mM DTT, 0.1% NP40, 0.05% BSA, and 150 mM NaCl. The background (no activity) samples were prepared using assay buffer without h-NAAA and DMSO (5%). N-(4-methyl-2-oxo-chromen-7-yl)-hexadecanamide (PAMCA)[60] was used as a substrate (2 μM) and the reaction was carried out for 50 min at 37 °C. Fluorescence was measured with EnVision 2014 Multilabel Reader (PerkinElmer, Massachusetts, USA) using an excitation wavelength of 355 nm and an emission of 460 nm. IC50 values were calculated by non-linear regression analysis of log[concentration]/response curves generated with mean replicate values using a four-parameter Hill equation curve fitting with GraphPad Prism 5 (GraphPad Software Inc., CA, USA).

[2] = Liver microsomal stability assay (NADPH), mouse; format: in vitro ADME; details: for half-life at 4.6 μM: male, CD1, pH 7.5, mouse liver microsomes, read-out: LM_NADPH t1/2; for % compound remaining at last time-point, LM_NADPH: mouse liver microsomes, 4.6 μM, 60 min
Experimental: Pooled CD1 mouse (M1000, male), IGS Sprague-Dawley rat (R1000, male), and human (H1000, male) liver microsomes were purchased from SEKISUI XenoTech. 10 mM DMSO stock solution of the test compound (39 or 50) was preincubated at 37 °C for 15 min with mouse, rat, or human liver microsomes in 0.1 M Tris-HCl buffer (pH 7.5) with 10% DMSO. The final concentration was 4.6 μM. After preincubation, the cofactor (NADPH) was added to the incubation mixture, and the incubation was continued at 37 °C for 1 h. At each time point (0, 5, 15, 30, and 60 min), 30 μL of incubation mixture was diluted with 200 μL cold CH3CN spiked with 200 nM of an appropriate internal standard, followed by centrifugation at 3.270g for 15 min. The supernatant was further diluted with H2O (1:1) for analysis. A reference incubation mixture of each specie (microsomes without cofactors) was prepared for each test compound and analyzed at t = 0 and 60 min in order to verify the compound stability in the matrix. The two time points were diluted as for the time points of the incubation mixture above. The supernatants were analyzed by LC–MS/MS on a Waters ACQUITY UPLC-MS TQD system consisting of a triple quadrupole detector (TQD) mass spectrometer equipped with an electrospray ionization interface and a photodiode array eλ detector (PDA) from Waters Inc. (Milford, MA, USA). Electrospray ionization was applied in positive mode. Compound-dependent parameters as MRM transitions and collision energy were developed for each compound. The analyses were run on an ACQUITY UPLC BEH C18 (50 × 2.1 mm ID, particle size 1.7 μm) with a VanGuard BEH C18 precolumn (5 × 2.1 mm ID, particle size 1.7 μm) at 40 °C, using H2O + 0.1% HCOOH (A) and CH3CN + 0.1% HCOOH (B) as the mobile phase. The percentage of test compound remaining at each time point relative to t = 0 was calculated by the response factor on the basis of the internal standard peak area. The percentage of test compound versus time was plotted and fitted by GraphPad Prism (GraphPad Software, Version 5 for Windows, CA, USA, www.graphpad.com) to estimate the compound’s half-life (t1/2), which was reported as mean value along with the standard deviation (n = 3).

## CCCCc1ccc(O[C@H]2C[C@H]3CC[C@@H](C2)N3S(=O)(=O)c2c(C)n[nH]c2C)cc1 [Compound 39, (1R,3r,5S)-3-(4-Butylphenoxy)-8-((3,5-dimethyl-1H-pyrazol-4-yl)sulfonyl)-8-azabicyclo[3.2.1]octane]
[1]
  LipE: 3.84
  pIC50: 7.64
  IC50: 23 ± 4 nM
[2]
  half-life at 4.6 μM: > 1 h
  % compound remaining at last time-point, LM_NADPH: 93%

## CCOCc1cnc(O[C@H]2C[C@H]3CC[C@@H](C2)N3S(=O)(=O)c2c(C)n[nH]c2C)cn1 [Compound 50, (1R,3r,5S)-8-((3,5-Dimethyl-1H-pyrazol-4-yl)sulfonyl)-3-((5-(ethoxymethyl)pyrazin-2-yl)oxy)-8-azabicyclo[3.2.1]octane]
[1]
  LipE: 6.83
  pIC50: 7.38
  IC50: 42 ± 2 nM
[2]
  half-life at 4.6 μM: > 1 h
  % compound remaining at last time-point, LM_NADPH: 55%
